Literature values, collected in patent publication US11185565B2, “Compositions including milk thistle and methods of use” (GM Pharmaceuticals, Inc., priority 2019, dated 2021).

Tests used:
[1] = deficiency in PQQ, mammals
[2] = additional chromium in drinking water; obese and insulin resistant mammals
[3] = addition of chromium to carbohydrate-rich meals

SMILES: O=C(O)c1cc(C(=O)O)c2c(n1)C(=O)C(=O)c1cc(C(=O)O)[nH]c1-2.[Na].[Na] [PQQ, pyrroloquinoline quinone disodium]
- decrease in metabolic rate [1]: ~10%

SMILES: [Cr] [chromium]
- glucose disposal rates and insulin-stimulated signaling in skeletal muscles [2]: significantly improved
- reduction in blood sugar after the carbohydrate-rich meals [3]: > 20%
